As a reminder, the IC50 is the concentration at which inhibition is half-maximal. As usually defined, the melting point is the temperature of the solid-liquid transition.

One data set concerns the target T1, His6-GSK-3β (Homo sapiens, UniProt P49841).
T1 construct: made in house; host or cells: Sf21 insect cells (baculovirus)
Kind of data set: Inhibition of His6-GSK-3β kinase activity (ELISA-based format, time-resolved fluorescence readout). To be noted: read-out: GSK3β IC50. The format is biochemical. A digest of the protocol: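 N-terminal His6-tagged full-length human GSK-3β (aa 2-419) expressed in Sf21 cells, 200 ng/ml, phosphorylating plate-coated GST-Rb with 20 μM ATP in pH 7.2 HEPES buffer, 30 min at 37° C. Phospho-Rb (Ser-780) detected by antibody plus Eu-labelled secondary, time-resolved fluorescence; IC50 from curves.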
A general note: ELISA stands for enzyme-linked immunosorbent assay.

In another data set the target is T2, CDK5/GST-p25 (Homo sapiens, UniProt Q00535).
T2 construct: The final construct, encoding for full-length human CDK5; made in house; host or cells: Sf21 insect cells (baculovirus co-infection)
T2 sequence (Q00535 whole entry): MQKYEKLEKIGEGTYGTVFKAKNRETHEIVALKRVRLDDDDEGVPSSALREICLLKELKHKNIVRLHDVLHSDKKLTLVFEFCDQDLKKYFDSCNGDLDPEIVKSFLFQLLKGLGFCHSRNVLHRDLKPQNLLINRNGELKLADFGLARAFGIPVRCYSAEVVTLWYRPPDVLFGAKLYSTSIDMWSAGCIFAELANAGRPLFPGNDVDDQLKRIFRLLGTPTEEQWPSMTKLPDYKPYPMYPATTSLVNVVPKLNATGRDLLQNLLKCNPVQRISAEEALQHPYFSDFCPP
T2 sequence (Q15078 108-307 partner limits assumed): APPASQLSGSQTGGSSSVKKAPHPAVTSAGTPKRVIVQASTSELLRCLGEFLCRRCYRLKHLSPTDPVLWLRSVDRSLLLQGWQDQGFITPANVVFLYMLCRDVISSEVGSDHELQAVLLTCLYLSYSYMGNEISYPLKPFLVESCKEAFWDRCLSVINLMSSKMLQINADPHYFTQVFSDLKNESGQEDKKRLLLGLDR
Kind of data set: Inhibition of CDK5/GST-p25 kinase activity (ELISA with time-resolved fluorescence readout). The format is biochemical. A digest of the protocol: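 Sf21-coexpressed full-length human CDK5 with GST-p25 (p35 aa 108-307), glutathione-purified, at 2 ng/ml was reacted for 20 min at 37 °C on plate-coated GST-Rb(773-928). Buffer was 20 mM HEPES pH 7.2, 10 µM ATP, 10 mM MgCl2 and 2.5% DMSO. Phospho-Rb Ser-780 was detected by Eu-labelled antibody TRF, and IC50 curves were fitted.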

Read-outs that look alike come from different tables or passages of the source.

T1 sequence (P49841 2-419): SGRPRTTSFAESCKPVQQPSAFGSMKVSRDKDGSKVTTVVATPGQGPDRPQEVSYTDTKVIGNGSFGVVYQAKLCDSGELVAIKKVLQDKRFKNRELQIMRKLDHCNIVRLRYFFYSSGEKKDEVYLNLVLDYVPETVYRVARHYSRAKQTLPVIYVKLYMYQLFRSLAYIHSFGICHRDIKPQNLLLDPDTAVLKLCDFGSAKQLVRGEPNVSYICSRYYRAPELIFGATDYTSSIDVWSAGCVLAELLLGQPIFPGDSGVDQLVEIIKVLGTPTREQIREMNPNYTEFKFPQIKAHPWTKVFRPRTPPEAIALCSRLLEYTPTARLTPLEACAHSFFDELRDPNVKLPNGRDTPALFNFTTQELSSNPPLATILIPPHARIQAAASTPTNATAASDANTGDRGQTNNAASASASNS

Take `COCCn1cc2c(C3C(=O)Nc4ccc(Br)cc43)nc(Cl)nc2n1` (stereo not drawn) [Example 225, 5-Bromo-3-[6-chloro-2-(2-methoxy-ethyl)-2H-pyrazolo [3,4-d]pyrimidin-4-yl]-1,3-dihydro-indol-2-one]: the melting point was over 300 °C. In addition, the IC50 on His6-GSK-3β (class symbols) is under 300 nM. The molecule further had an IC50 against CDK5/GST-p25 (class symbols) of over 10000 nM.
Taken in the same sequence, the figures for `O=C1Nc2ccc([N+](=O)[O-])cc2C1c1ncnc2nn(C3CCCCC3)cc12` (stereo not drawn) [Example 49, 3-(2-Cyclohexyl-2H-pyrazolo[3,4-d]pyrimidin-4-yl)-5-nitro-1,3-dihydroindol-2-one] were 301 to 304 °C, under 300 nM and under 300 nM.
Molecule `COCCN(CCOC)c1nc(C2C(=O)Nc3ccc(C#N)cc32)c2cn(C3CCCC3)nc2n1` (stereo not drawn) [Example 167, 3-{6-[bis-(2-methoxyethyl)amino]-2-cyclopentyl-2H-pyrazolo[3,4-d]pyrimidin-4-yl}-2-oxo-2,3-dihydro-1H-indole-5-carbonitrile] showed a melting point of 248.5 to 249 °C. On His6-GSK-3β (class symbols), the IC50 is under 300 nM. The molecule further gave an IC50 against CDK5/GST-p25 (numeric bounds) of over 3000 nM.
`O=C1Nc2cc(Cl)ccc2C1c1ncnc2nn(C3CCCC3)cc12` (stereo not drawn) [Example 32, 6-Chloro-3-(2-Cyclopentyl-2H-pyrazolo [3,4-d]pyrimidin-4-yl)-2-oxo-1,3-dihydro-indol-2-one] yielded a melting point of 294 to 296 °C. Also, the IC50 on His6-GSK-3β (numeric bounds) was over 3000 nM. This molecule yielded an IC50 against CDK5/GST-p25 (class symbols) of 300 to 3000 nM.
In turn, `O=C1Nc2ccc(F)cc2C1c1ncnc2nn(C3CCCC3)cc12` (stereo not drawn) [Example 40, 3-(2-Cyclopentyl-2H-pyrazolo[3,4-d]pyrimidin-4-yl)-5-fluoro-1,3-dihydro-indol-2-one] registered a melting point of 256 to 260 °C. For the same molecule, the IC50 at His6-GSK-3β (class symbols) fell in the range of 300 to 3000 nM. The IC50 against CDK5/GST-p25 (class symbols) is under 300 nM.
`CN(C)CCNc1nc(C2C(=O)Nc3ccc(C(F)(F)F)cc32)c2cn(C3CCCC3)nc2n1` (stereo not drawn) [Example 251, 3-[2-Cyclopentyl-6-(2-dimethylamino-ethylamino)-2H-pyrazolo[3,4-d]pyrimidin-4-yl]-5-trifluoromethyl-1,3-dihydro-indol-2-one]: the melting point lay within 211 to 213 °C. Besides, on His6-GSK-3β (class symbols), the IC50 was under 300 nM. On CDK5/GST-p25 (numeric bounds), this molecule gave an IC50 of over 3000 nM.
`CC(=O)NCCNc1nc(C2C(=O)Nc3ccc(Cl)cc32)c2cn(C3CCCC3)nc2n1` (stereo not drawn) [Example 276, N-{2-[4(5-Chloro-2-oxo-2,3-dihydro-1H-indol-3-yl)-2-cyclopentyl-2H-pyrazolo[3,4-d]pyrimidin-6-ylamino]-ethyl}-acetamide] registered a melting point of 209 to 226 °C. Also, on His6-GSK-3β (class symbols), the IC50 is under 300 nM. On CDK5/GST-p25 (class symbols), this molecule had an IC50 of 300 to 3000 nM.
Taken in the same sequence, the figures for `CCOCCn1cc2c(C3C(=O)Nc4ccc(Cl)cc43)nc(NCc3ccncc3)nc2n1` (stereo not drawn) [Example 214, 5-Chloro-3-{2-(2-ethoxy-ethyl)-6-[(pyridine-4-ylmethyl)-amino]-2H-pyrazolo[3,4-d]pyrimidin-4-yl}-1,3-dihydro-indol-2-one] were 298 to 299 °C, under 300 nM and under 300 nM.
Take `O=C1Nc2ccc(C(F)(F)F)cc2C1c1ncnc2c1cnn2C1CCCCC1` (stereo not drawn) [Example 71, 3-(1-Cyclohexyl-1H-pyrazolo [3,4-d]pyrimidin-4-yl)-5-trifluoromethyl-1,3-dihydro-indol-2-one]: the melting point was over 300 °C. Besides, the IC50 at His6-GSK-3β (class symbols) is over 10000 nM. Besides, the IC50 against CDK5/GST-p25 (class symbols) was over 10000 nM.

For the origin of these results see patent US8354414B2, “Substituted bicyclic pyrimidines” (Cephalon, Inc, priority 2006, dated 2013).
